Several values for one entry are separate records, joined by “and”; a condition that tells them apart may be missing. Equal entries are not always repeated. Inconclusive results and toxic doses are left out.

This test deals with L1210 leukemia ip in BDF1 mice, survival T/C. Kind of test: NCI In Vivo Anticancer Drug Screen. Data for tumor model L1210 Leukemia (intraperitoneal) in B6D2F1 (BDF1) mice. Conditions: higher = longer survival. The gist of the method:
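Each compound was tested against a transplantable tumor grown in mice. The endpoint was survival, with treated animals benchmarked against vehicle controls as a simple ratio.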

Setting [1] is: endpoint: mean survival time, dose: 100.0 mg/kg/injection, schedule: Q01DX001 (ip), vehicle: saline.
The mark [2] stands for this setting: endpoint: mean survival time, dose: 200.0 mg/kg/injection, schedule: Q01DX001 (ip), vehicle: saline.
The mark [3] stands for this setting: endpoint: mean survival time, dose: 400.0 mg/kg/injection, schedule: Q01DX001 (ip), vehicle: saline.
[4] abbreviates: endpoint: mean survival time, dose: 100.0 mg/kg/injection, schedule: Q01DX001 (ip), vehicle: Klucel (hydroxypropylcellulose) (HPC).
Setting [5] is: endpoint: mean survival time, dose: 200.0 mg/kg/injection, schedule: Q01DX001 (ip), vehicle: Klucel (hydroxypropylcellulose) (HPC).
[6] abbreviates: endpoint: mean survival time, dose: 400.0 mg/kg/injection, schedule: Q01DX001 (ip), vehicle: Klucel (hydroxypropylcellulose) (HPC).
The mark [7] stands for this setting: endpoint: mean survival time, dose: 200.0 mg/kg/injection, schedule: Q04DX003 (ip), vehicle: saline with Tween-80.

Turning to `C=CCNC(=O)NCC=C`, the T/C was 114 % of control (endpoint: mean survival time, dose: 6.25 mg/kg/injection, schedule: Q01DX009 (ip), vehicle: saline); 116 % of control (endpoint: mean survival time, dose: 6.25 mg/kg/injection, schedule: Q01DX009 (oral), vehicle: saline); 105 % of control and 106 % of control (endpoint: mean survival time, dose: 12.5 mg/kg/injection, schedule: Q01DX009 (ip), vehicle: saline); 110 % of control (endpoint: mean survival time, dose: 12.5 mg/kg/injection, schedule: Q01DX009 (oral), vehicle: saline); 176 % of control (endpoint: mean survival time, dose: 50.0 mg/kg/injection, schedule: Q01DX009 (oral), vehicle: saline); 111 % of control under setting [1]. Also, the T/C by setting is: under setting [2], 114 % of control; (endpoint: mean survival time, dose: 200.0 mg/kg/injection, schedule: Q01DX009 (oral), vehicle: saline) 100 % of control; (endpoint: mean survival time, dose: 300.0 mg/kg/injection, schedule: Q01DX009 (ip), vehicle: saline) 122 % of control; (endpoint: median survival time, dose: 12.5 mg/kg/injection, schedule: Q01DX009 (ip), vehicle: saline) 122 % of control; (endpoint: median survival time, dose: 12.5 mg/kg/injection, schedule: Q01DX009 (sc), vehicle: saline) 116 % of control; (endpoint: median survival time, dose: 50.0 mg/kg/injection, schedule: Q01DX009 (ip), vehicle: saline) 112 % of control and 122 % of control. In addition, the T/C by setting is: (endpoint: median survival time, dose: 100.0 mg/kg/injection, schedule: Q01DX001 (ip), vehicle: saline) 105 % of control; (endpoint: median survival time, dose: 100.0 mg/kg/injection, schedule: Q01DX001 (sc), vehicle: saline) 105 % of control; (endpoint: median survival time, dose: 100.0 mg/kg/injection, schedule: Q04DX003 (ip), vehicle: saline) 105 % of control; (endpoint: median survival time, dose: 100.0 mg/kg/injection, schedule: Q04DX003 (sc), vehicle: saline) 111 % of control; (endpoint: median survival time, dose: 200.0 mg/kg/injection, schedule: Q01DX001 (ip), vehicle: saline) 111 % of control; (endpoint: median survival time, dose: 200.0 mg/kg/injection, schedule: Q01DX001 (sc), vehicle: saline) 111 % of control. In addition, the T/C is 100 % of control and 122 % of control (endpoint: median survival time, dose: 200.0 mg/kg/injection, schedule: Q01DX009 (ip), vehicle: saline); 116 % of control (endpoint: median survival time, dose: 200.0 mg/kg/injection, schedule: Q04DX003 (ip), vehicle: saline); 116 % of control (endpoint: median survival time, dose: 200.0 mg/kg/injection, schedule: Q04DX003 (sc), vehicle: saline).
Take `CCOC(=O)c1ccc(NCC(=N)N)cc1`: the T/C is 103 % of control (endpoint: mean survival time, dose: 100.0 mg/kg/injection, schedule: Q01DX001 (ip), vehicle: saline sonified) and 100 % of control (endpoint: mean survival time, dose: 200.0 mg/kg/injection, schedule: Q01DX001 (ip), vehicle: saline sonified).
Take `COc1ccc(Cl)c(C(=O)O)c1`: the T/C runs as follows: (endpoint: mean survival time, dose: 100.0 mg/kg/injection, schedule: Q04DX002 (ip), vehicle: Klucel (hydroxypropylcellulose) (HPC)) 114 % of control; (endpoint: mean survival time, dose: 200.0 mg/kg/injection, schedule: Q04DX002 (ip), vehicle: Klucel (hydroxypropylcellulose) (HPC)) 114 % of control; (endpoint: mean survival time, dose: 400.0 mg/kg/injection, schedule: Q04DX002 (ip), vehicle: Klucel (hydroxypropylcellulose) (HPC)) 103 % of control.
As for `CN(C)[C@@H]1C(=O)C(C(=O)NCNC(CO)(CO)CO)=C(O)[C@@]2(O)C(=O)C3=C(O)c4c(O)cccc4[C@@](C)(O)[C@H]3C[C@@H]12`, the T/C is 100 % of control (endpoint: mean survival time, dose: 1.0 mg/kg/injection, schedule: Q01DX Z (ip), vehicle: saline); 100 % of control (endpoint: mean survival time, dose: 4.0 mg/kg/injection, schedule: Q01DX Z (ip), vehicle: saline); 108 % of control (endpoint: mean survival time, dose: 14.0 mg/kg/injection, schedule: Q01DX Z (ip), vehicle: saline); 102 % of control (endpoint: mean survival time, dose: 15.0 mg/kg/injection, schedule: Q01DX Z (ip), vehicle: saline); 104 % of control (endpoint: mean survival time, dose: 25.0 mg/kg/injection, schedule: Q01DX009 (ip), vehicle: saline); 94 % of control (endpoint: mean survival time, dose: 28.0 mg/kg/injection, schedule: Q01DX Z (ip), vehicle: saline). Besides, the T/C by setting is: (endpoint: mean survival time, dose: 50.0 mg/kg/injection, schedule: Q01DX009 (ip), vehicle: saline) 97 % of control and 101 % of control; (endpoint: mean survival time, dose: 60.0 mg/kg/injection, schedule: Q01DX Z (ip), vehicle: saline) 100 % of control; under setting [1], 93 % of control and 95 % of control; (endpoint: mean survival time, dose: 100.0 mg/kg/injection, schedule: Q01DX009 (ip), vehicle: saline) 98 % of control and 97 % of control; (endpoint: mean survival time, dose: 100.0 mg/kg/injection, schedule: Q04DX003 (ip), vehicle: acetone) 92 % of control; (endpoint: mean survival time, dose: 112.0 mg/kg/injection, schedule: Q01DX Z (ip), vehicle: saline) 93 % of control. Moreover, the T/C by setting is: (endpoint: mean survival time, dose: 120.0 mg/kg/injection, schedule: Q01DX Z (ip), vehicle: saline) 113 % of control; under setting [2], 108 % of control and 106 % of control; (endpoint: mean survival time, dose: 200.0 mg/kg/injection, schedule: Q04DX003 (ip), vehicle: acetone) 100 % of control and 94 % of control; (endpoint: mean survival time, dose: 224.0 mg/kg/injection, schedule: Q01DX Z (ip), vehicle: saline) 115 % of control; (endpoint: mean survival time, dose: 240.0 mg/kg/injection, schedule: Q01DX Z (ip), vehicle: saline) 111 % of control; (endpoint: mean survival time, dose: 266.0 mg/kg/injection, schedule: Q01DX009 (ip), vehicle: saline) 96 % of control. Moreover, the T/C under setting [3] was 104 % of control and 92 % of control; the T/C (endpoint: mean survival time, dose: 400.0 mg/kg/injection, schedule: Q04DX003 (ip), vehicle: acetone) is 91 % of control and 90 % of control.
In the case of `CC(C)=N/N=C(/C(=O)c1ccccc1)c1ccccc1`, the T/C is 109 % of control under setting [1], 109 % of control under setting [2] and 97 % of control under setting [3].
With `COCC(O)C(OC)C(OC)C(C=O)NC(=O)NCCCl` (configuration not stated), the T/C is 102 % of control under setting [4], 103 % of control under setting [5] and 100 % of control under setting [6].
Take `COc1cc(Nc2ncnc(N)c2[N+](=O)[O-])cc(OC)c1OC`: under setting [7], the T/C is 88 % of control.
For the compound `CC(=O)OCC(CCn1ccc(=O)[nH]c1=O)COC(C)=O`, the T/C is 93 % of control (endpoint: mean survival time, dose: 100.0 mg/kg/injection, schedule: Q01DX009 (ip), vehicle: saline with Tween-80); 100 % of control (endpoint: mean survival time, dose: 100.0 mg/kg/injection, schedule: Q04DX003 (ip), vehicle: saline with Tween-80); 95 % of control (endpoint: mean survival time, dose: 200.0 mg/kg/injection, schedule: Q01DX009 (ip), vehicle: saline with Tween-80); 105 % of control under setting [7]; 100 % of control (endpoint: mean survival time, dose: 400.0 mg/kg/injection, schedule: Q01DX009 (ip), vehicle: saline with Tween-80); 106 % of control (endpoint: mean survival time, dose: 400.0 mg/kg/injection, schedule: Q04DX003 (ip), vehicle: saline with Tween-80).
With `O=C(NC(=O)C(Cl)Cl)Nc1cccc2c1-c1ccccc1C2`, the T/C is, setting by setting: under setting [4], 94 % of control; (endpoint: mean survival time, dose: 100.0 mg/kg/injection, schedule: Q01DX009 (ip), vehicle: Klucel (hydroxypropylcellulose) (HPC)) 108 % of control; (endpoint: mean survival time, dose: 100.0 mg/kg/injection, schedule: Q04DX003 (ip), vehicle: Klucel (hydroxypropylcellulose) (HPC)) 88 % of control; under setting [5], 97 % of control; (endpoint: mean survival time, dose: 200.0 mg/kg/injection, schedule: Q01DX009 (ip), vehicle: Klucel (hydroxypropylcellulose) (HPC)) 100 % of control; (endpoint: mean survival time, dose: 200.0 mg/kg/injection, schedule: Q04DX003 (ip), vehicle: Klucel (hydroxypropylcellulose) (HPC)) 92 % of control. The T/C by setting is: under setting [6], 92 % of control; (endpoint: mean survival time, dose: 400.0 mg/kg/injection, schedule: Q04DX003 (ip), vehicle: Klucel (hydroxypropylcellulose) (HPC)) 93 % of control.
For `CC(C)C1C(=O)N2CCCC2C2(O)OC(C(=O)NCCc3c[nH]c4ccccc34)(C(C)C)C(=O)N12` (configuration not stated), the T/C was 98 % of control (endpoint: mean survival time, dose: 6.25 mg/kg/injection, schedule: Q04DX003 (ip), vehicle: saline with Tween-80); 111 % of control (endpoint: mean survival time, dose: 12.5 mg/kg/injection, schedule: Q04DX003 (ip), vehicle: saline with Tween-80); 98 % of control (endpoint: mean survival time, dose: 25.0 mg/kg/injection, schedule: Q04DX003 (ip), vehicle: alcohol); 101 % of control (endpoint: mean survival time, dose: 25.0 mg/kg/injection, schedule: Q04DX003 (ip), vehicle: saline with Tween-80); 105 % of control (endpoint: mean survival time, dose: 50.0 mg/kg/injection, schedule: Q04DX003 (ip), vehicle: alcohol); 98 % of control (endpoint: mean survival time, dose: 50.0 mg/kg/injection, schedule: Q04DX003 (ip), vehicle: saline with Tween-80). In addition, the T/C is, setting by setting: (endpoint: mean survival time, dose: 100.0 mg/kg/injection, schedule: Q04DX003 (ip), vehicle: alcohol) 98 % of control; (endpoint: mean survival time, dose: 200.0 mg/kg/injection, schedule: Q04DX003 (ip), vehicle: alcohol) 98 % of control.
As to `C#CC(=O)C(CC)CCCC` (configuration not stated), the T/C (endpoint: mean survival time, dose: 6.25 mg/kg/injection, schedule: Q01DX009 (ip), vehicle: saline with Tween-80) was 115 % of control and the T/C (endpoint: mean survival time, dose: 12.5 mg/kg/injection, schedule: Q01DX009 (ip), vehicle: saline with Tween-80) was 117 % of control.

The record behind these values is PubChem BioAssay AID248 (DTP/NCI, 2004).
